Assay: in vivo
Settings: rat
Procedure: Male Lewis rats weighing approximately 300 g were used. […] This dose was administered by gavage. The nasal dose of (1') was administered to rats after surgical isolation of the nasal cavity. The trachea was cannulated to allow free breathing, and a closed tube was inserted anteriorly through the esophagus to block the posterior part of the nasal cavity. The incisive ducts were closed with an adhesive to prevent drainage into the mouth. The dose was administered through the nares with a microliter syringe via polyethylene tubing. […] Serial blood samples (~0.5 ml) were collected into heparinized test tubes after cutting the tip of the tail. […] Aliquots of the acid were injected onto the HPLC. […] Du Pont) attached to a guard column packed with cyano packing. A liter of mobile phase contained […] of 0.1 M acetate buffer at pH 3.5, 480 ml acetontrile, 5 ml tetrahydrofuran, and 0.75 g sodium heptanesulfonate. […] Detection was by ultraviolet (uv) absorbance at 252 nm. The detection limit was 0.12 μg/ml plasma. […] Systemic bioavailability after oral and nasal doses was calculated for each rat as the ratio of AUC^oral or ^nasal /AUC^iv, using the average AUC^iv and correcting for the differences in dose. Values are expressed as percentage (%) of dose.

For `O=C1N(c2ccccc2)c2ccccc2C1(Cc1ccncc1)Cc1ccncc1` [1'], the Tmax (1 mg/kg) was no more than 10 min, the “Bioavailability (F)” value (2 mg/kg) was 100 % of Dose and the AUC at 3 h (4 mg/kg) was 1340 ± 140 ng·h/mL. It also gave a bioavailability (4 mg/kg, Nasal Bioavailability (F)) of 53 ± 5.5%, an AUC at 3 h (iv, 2 mg/kg) of 1260 ± 90 ng·h/mL and an AUC at 3 h (po, 20 mg/kg) of 1150 ± 240 ng·h/mL. It also gave a bioavailability (po, 20 mg/kg, Oral Bioavailability (F)) of 9.1 ± 1.9%.

From patent publication US4965066A, “Intranasal administration of 3,3-disubstituted indolines” (E. I. Du Pont de Nemours and Company, priority 1989, dated 1990)
